Series [1] has as its system P. putida TVA8. Format: cell-based, Pseudomonas putida. Particulars: for light response (in words): approximately 50 mg/L (JP-4 approx. 2%), 2 h; for Specific Bioluminescence: approximately 50 mg/L.
Series [2] has as its system P. putida B2. Description: Immobilized cell reactor (DVR) with alginate-encapsulated P. putida B2: bioluminescence and TCE co-metabolism. The format is cell-based, Pseudomonas putida. The procedure:
In the batch and reactor studies, bioluminescence was measured using a photomultiplier, which converts the light to an electric current. The photomultiplier in the resting cell assays and the reactor system was connected to a computer and bioluminescence as namps current was recorded.
P. putida B2 was encapsulated in alginate beads for the immobilized cell reactor system. Cells were grown in 1 L LB to an OD546 of 1.2 and were centrifuged at 5500×g for 10 min, washed three times in 0.9% NaCl and suspended in 40 ml 0.9% NaCl. The cell suspension was added to 80 ml of an alginic acid solution (28 g L^−1 low viscosity alginate, 0.9% NaCl) (Webb, 1992). The cell-alginate suspension was placed in a 60-ml syringe, forced through a 25-gauge needle, and allowed to drop into a 0.5 M CaCl2 Solution. The alginate was cross-linked by the Ca^2+ ions, thus encapsulating the cells. The cells were subsequently placed in a fresh solution of 0.1 M CaCl2 and allowed to sit for 30 min prior to use.
A differential volume reactor (DVR) was used to simulate a section of an ideal plug flow reactor. Influent to the reactor was dispersed through a porous metal frit to provide a flat velocity profile to the bed. The reactor measured 5.0 cm i.d.×5.0 cm long. A complete description of this reactor can be found in Webb et al. (1991). In this investigation, a system was designed incorporating the DVR as illustrated in FIG. 17. The system was equipped with three Millipore (Bedford, Mass.) stainless steel substrate containers rated to 690 kPa. The feed from the substrate vessels to the reactor inlet was controlled by two Filson (Middleton, Wis.) 301 HPLC pumps. A flow rate of 0.4 ml min^−1 was maintained. The substrate vessels were pressurized with oxygen to provide the system with an electron acceptor. All medium vessels contained trace mineral medium (Lackey et al., 1993) with the addition of 3 mg L^−1 pyruvic acid and a 0.1 M solution of Tris-base (pH 7.0). phosphate buffers were not used since phosphate ions complex with Ca^2+ ions and disrupt with alginate crosslinking. In addition to this medium, two of the vessels contained either TCE or toluene. The inlet concentration of toluene was altered by using square-wave perturbations with 20-h cycles (10 h with toluene, 10 h without toluene) using an HPLC pump controlled by a timer. During feed portions of the cycle, 10 mg L^−1 toluene was introduced into the inlet of the reactor. The inlet TCE concentration was constant at 20 mg L^−1.
Analysis of TCE in the reactor effluent was performed online using a stripping column (12.5 cm length and 0.4 cm inner diameter) packed with 3-mm glass beads to provide adequate surface area for TCE separation. TCE was stripped with helium, the GC carrier gas. The stripping column outlet was attached to a gas chromatograph (GC, Hewlett Packard (Wilmington, Del.) (HP) 5890 Series II) with an electron capture detector by a heated sample line maintained at 75° C. Automatic injections (25 μl) were made by a computerized control process (HP Chem Station software). The GC was equipped with a cross-linked methyl silicone capillary column (length 30 n, i.d 0.2 mm, 0.33-μm film thickness) while the oven was operated isothermally at 60° C. Other operating parameters included an injection temperature of 150° C., detector temperature of 200° C. and a split ratio of 10:1. This system was equipped with a bypass line around the reactor in order to calibrate the stripping column.
Toluene samples were removed at 0.5-ml aliquots from the effluent sampling port (FIG. 17) and injected into 1.5 ml sample vials. Headspace analysis was performed using a Shimadzu (Columbia, Md.) GC-9A gas chromatograph equipped with a 2.44-m, 3.2-mm diameter Poropak N packed column and a flame ionization detector. The isothermal temperature of the oven was 210° C., and both the detector and injector temperatures were 220° C.

Setting [3] is: exposure 2 hours, normalized to final OD546, average ± SD of three replicates.
Where [4] appears, read: inlet TCE 20 mg/L, toluene being introduced.

Data on seven molecules can be found in US6905834B1, “Bioluminescent bioreporter integrated circuit detection methods” (UT-Battelle, LLC, priority 1997, dated 2005).

Where two headings read alike, the source gives them in different places. Marks after values point to notes of the source that are not given here.

For `c1ccccc1` [Benzene, benzene], the “light response (in words)” value in series [1] is on record as “significant light response”. The “Specific Bioluminescence” value in series [1] (setting [3]) came to 242 ± 9 namp/OD.
As for `Cc1cccc(C)c1` [m-xylene], the “light response (in words)” value in series [1] is “significant light response”. In addition, in series [1] (setting [3]), the “Specific Bioluminescence” value is on record as 38 ± 3 namp/OD.
On to `CCc1ccccc1` [Ethylbenzene, ethylbenzene], for which the “induction of bioluminescence response in pre-grown cells” value in series [1] (50 mg/L, cells previously grown on ethylbenzene, growing cell assays) was “induce the bioluminescence response without a lag period”. For the same molecule, the “Specific Bioluminescence” value in series [1] (setting [3]) is recorded as 1.0 ± 0.2 namp/OD; in series [1] (exposure 4 hours, from a similar but separate study), 47 ± 6^c namp/OD.
`Cc1ccccc1C` [o-xylene]: in series [1], the “light response (in words)” value is given as “no increase of bioluminescence”. Further, the “Specific Bioluminescence” value in series [1] (setting [3]) worked out at 0.5 ± 0.1 namp/OD.
Turning to `Cc1ccc(C)cc1` [p-xylene], the “light response (in words)” value in series [1] is reported as “significant light response”. Further, the “Specific Bioluminescence” value in series [1] (setting [3]) amounted to 24 ± 2 namp/OD.
The matching figures for `Oc1ccccc1` [Phenol, phenol]: “significant light response” and 70 ± 2 namp/OD.
On to `ClC=C(Cl)Cl` [TCE, trichloroethylene], for which, in series [2] (20 mg/l TCE), the “toxic effects of continuous TCE exposure (in words)” value was “there did not appear to be any toxic effects”. For the same molecule, the “induction of the tod operon by TCE (in words)” value in series [2] (absence of toluene, 20 mg/L TCE) is given as “did not appear to induce the tod operon”. In series [2] (setting [4]), the TCE removal amounted to 20% and the “steady-state TCE effluent concentration” value came out at 16.5 ± 0.2 mg/L.
